The structures appear in SMILES notation.

These results are taken from patent US20050250819A1 (priority 2004, published 2005).

This assay concerns Type III protein secretion of the chimeric SopE‘-’Bla polypeptide (SPI1 type III protein secretion system). Put plainly: Primary assay: Type III protein secretion of the chimeric SopE'-'Bla polypeptide by Salmonella enterica. The class given is cell-based. The following applies: read-out: SopE IC50(μM). The text has this:
Primary assay: Type III protein secretion of the chimeric SopE‘-’Bla polypeptide by Salmonella enterica. This procedure is a cell-based assay that measures the type III-dependent secretion by Salmonella enterica of a plasmid-encoded chimeric polypeptide whose synthesis can be regulated, and which is endowed with an enzymatic activity that can be monitored colorimetrically by hydrolysis of a substrate that is unable to penetrate into the bacterial cytoplasm within the time constraints of the reaction. Thus, the colormetric reaction is not influenced by SopE‘-’Bla polypeptide in the bacterial cytplasm. Instead, it effectively measures the amount of polypeptide that has been secreted from the S. enterica cytoplasm to the extracellular medium via type III system protein secretion.
The SopE‘-’Bla recombinant polypeptide consists of two functionally distinct domains spliced together. The N-terminus domain is encoded by a polynucleotide region specifying the signal for type III secretion of the SopE polypeptide of S. enterica, an effector of the SPI1 type III protein secretion system. The C-terminus domain of SopE‘-’Bla consists of a 263 amino acid peptide sequence that corresponds to the TEM-1 β-lactamase expressed by plasmid pBR322 but without its N-terminal signal sequence. The TEM-1 β-lactamase part of the SopE‘-’Bla chimeric polypeptide is used as a reporter enzyme. It is capable of hydrolyzing nitrocefin resulting in a product whose accumulation can be monitored by colorimetric detection. The secretion of the SopE‘-’Bla chimeric polypeptide from the cytoplasm to the extracellular medium is dependent on type III protein secretion.
For this procedure, cells grown under conditions known to favor a functional SPI1 secretion system are induced for expression of the SopE‘-’Bla protein and grown either in the presence or in the absence of putative inhibitors for determined time. Nitrocefin is then added to the various cultures and its hydrolysis are used for quantitation. An inhibitor of Type III protein secretion is generally a compound that reduces the signal of the enzymatic reaction by decreasing the amount of SopE‘-’Bla secreted into the extracellular medium.
What is called IC50 is the concentration at which inhibition is half-maximal. For `O=C(N[C@H](CSCc1ccccc1)C(=O)O)/C(=C\c1ccc(C(F)(F)F)cc1)NC(=O)c1cc2ccccc2s1` [Compound 64, (S)-2-[2-[(Benzo[b]thiophene-2-carbonyl)amino]-3-(4-trifluoromethylphenyl)-acryloylamino]-3-benzylsulfanylpropionic acid], the IC50 came out at 49.4 µM.
On to `O=C(NCC1CCCO1)/C(=C\c1ccc(-c2ccccc2)cc1)NC(=O)c1ccc(C(F)(F)F)cc1` (stereo not shown) [Compound 2, N-{2-Biphenyl-4-yl-1-[(tetrahydro-furan-2-yl-methyl)carbamyl]vinyl}-4-trifluoromethylbenzamide], for which the half-maximal inhibitory concentration (IC50) turned out to be 69 µM.
For `O=C(N[C@H](COCc1ccccc1)C(=O)O)/C(=C\c1ccc(C(F)(F)F)cc1)NC(=O)c1cc2ccccc2s1` [Compound 65, (R)-2-[2-[(Benzo[b]thiophene-2-carbonyl)amino]-3-(4-trifluoromethylphenyl)-acryloylamino]-3-benzyloxypropionic acid], the IC50 is 88 µM.
The figure for `O=C(NC(Cc1ccc(Br)cc1)C(=O)O)/C(=C\c1cccc(C(F)(F)F)c1)NC(=O)c1ccc(-c2ccccc2)cc1` (stereo not shown) [Compound 60, 2-[2-[(Biphenyl-4-carbonyl)amino]-3-(3-trifluoromethylphenyl)acryloylamino]-3-(4-bromophenyl)propionic acid] is 9.2 µM.
Take `CC(C)(S)C(NC(=O)/C(=C\c1cccc(C(F)(F)F)c1)NC(=O)c1ccc(-c2ccccc2)cc1)C(=O)O` (stereo not shown) [Compound 95]: the concentration for half-maximal inhibition (IC50) was 14.1 µM.
Under `NC(=O)C[C@@H](NC(=O)/C(=C\c1ccc(-c2ccccc2)cc1)NC(=O)c1ccc(C(F)(F)F)cc1)C(=O)O` [Compound 152] stands 100 µM; under `O=C(NC(CCSCc1ccccc1)C(=O)O)/C(=C\c1ccc(Cl)cc1Cl)NC(=O)c1ccc(-c2ccccc2)cc1` (stereo not shown) [Compound 104], 3.8 µM; under `O=C(NN(Cc1ccc(Cl)c(C(F)(F)F)c1)C(=O)NC(Cc1ccc(Cl)cc1)C(=O)O)c1ccc(-c2ccccc2)cc1` (stereo not shown) [Compound 52, 4-Biphenylcarboxylic acid-N′-[(4-chloro-3-trifluoromethylphenyl)methyl]-N′-[[[2-(4-chlorophenyl)-1-carboxyethyl]amino]carbonyl]hydrazide], 3.1 µM.
Under `O=C(NC(=Cc1cccc(C(F)(F)F)c1)C(=O)N1C(c2ccc(F)cc2)SC[C@H]1C(=O)O)c1ccc(-c2ccccc2)cc1` (stereo partly drawn) [Compound 61, (4R)-3-[2-[(Biphenyl-4-carbonyl)amino]-3-(3-trifluoromethylphenyl)acryloyl]-2-(4-fluorophenyl)thiazolidine-4-carboxylic acid] stands 3.7 µM; under `O=C(O)CCCCNC(=O)/C(=C\c1cccc(C(F)(F)F)c1)NC(=O)c1ccc(-c2ccccc2)cc1` [Compound 99], 42 µM.
The figure for `O=C(NC1(C(=O)O)CCCCC1)/C(=C\c1ccc(-c2ccccc2)cc1)NC(=O)c1ccc(C(F)(F)F)cc1` [Compound 135] is 50 µM.
For `O=C(N[C@@H](CSCc1ccccc1)C(=O)O)C(=Cc1ccc2ccccc2c1)NC(=O)c1ccc(I)cc1` [Compound 46, (R)-3-Benzylsulfanyl-2-[2-(4-iodobenzoylamino)-3-naphthalen-2-yl-acryloylamino]propionic acid], the IC50 was determined as 28.6 µM.
The figure for `O=C(N[C@@H](Cc1ccc(Cl)cc1)C(=O)O)/C(=C\c1cccc(C(F)(F)F)c1)NC(=O)c1ccc(Cl)cc1` [Compound 27, (S)-2-[2-(4-Chlorobenzoylamino)-3-(3-trifluoromethylphenyl)acryloylamino]-3-(4-chlorophenyl)propionic acid] is 87 µM; for `O=C(NN(Cc1ccc(OC(F)(F)F)cc1)C(=O)N[C@@H](CSCc1ccccc1)C(=O)O)c1ccc(C(F)(F)F)cc1` [Compound 11, 4-Trifluoromethylbenzoic acid-N′-[(4-trifluoromethoxyphenyl)methyl]-N′-[[[(2-benzylthio)-1-carboxyethyl]amino]carbonyl]hydrazide] it is 49 µM; for `CC(C)(S)C(NC(=O)/C(=C\c1cccc(Oc2ccccc2)c1)NC(=O)c1ccc(-c2ccccc2)cc1)C(=O)O` (stereo not shown) [Compound 127] it is 10 µM.
Consider `O=C(N[C@H](Cc1ccc(Cl)cc1)C(=O)O)/C(=C\c1cccc(C(F)(F)F)c1)NC(=O)c1ccc(Cl)cc1` [Compound 28, (R)-2-[2-(4-Chlorobenzoylamino)-3-(3-trifluoromethylphenyl)acryloylamino]-3-(4-chlorophenyl)propionic acid], for which the half-maximal inhibitory concentration (IC50) is 86 µM.
Under `O=C(O)C[C@H](Cc1ccc(Cl)cc1)NC(=O)/C(=C\c1ccc(-c2ccccc2)cc1)NC(=O)c1ccc(C(F)(F)F)cc1` [Compound 13, (S)-3-[3-Biphenyl-4-yl-2-(4-trifluoromethylbenzoylamino)acryloylamino]-4-(4-chlorophenyl)butyric acid] stands 5.2 µM.
For `O=C(NC(Cc1ccc(Cl)cc1)C(=O)O)/C(=C\c1cccc(C(F)(F)F)c1)CC(=O)c1ccc(-c2ccccc2)cc1` (stereo not shown) [Compound 4, 2-[2-(2-Biphenyl-4-yl-2-oxoethyl)-3-(3-trifluoromethylphenyl)acryloylamino]-3-(4-chlorophenyl)propionic acid], the half-maximal inhibitory concentration (IC50) amounted to 1.1 µM.
As to `O=C(NN(Cc1cccc(Oc2ccccc2)c1)C(=O)N[C@@H](CSCc1ccccc1)C(=O)O)c1ccc(C(F)(F)F)cc1` [Compound 9, 4-Trifluoromethylbenzoic acid-N′-[(3-phenoxyphenyl)methyl]-N′-[[[(2-benzylthio)-1-carboxyethyl]amino]carbonyl]hydrazide], the half-inhibitory concentration (IC50) was determined as 15 µM.
For `O=C(O)[C@H](COCc1ccccc1)NC(=O)N(CCc1ccc(-c2ccccc2)cc1)Cc1cccc(C(F)(F)F)c1` [Compound 88, (S)-3-Benzyloxy-2-[3-(2-biphenyl-4-yl-ethyl)-3-(3-trifluoromethylbenzyl)ureido]propionic acid], the IC50 was determined as 4 µM.
For `O=C(N[C@@H](CSCc1ccccc1)C(=O)O)/C(=C\c1ccc(Br)cc1)NC(=O)C1CCN(c2nccc(C(F)(F)F)n2)CC1` [Compound 81, (R)-3-Benzylsulfanyl-2-(3-(4-bromophenyl)-2-{[1-(4-trifluoromethylpyrimidin-2-yl)piperidine-4-carbonyl]amino}acryloylamino)propionic acid], the half-inhibitory concentration (IC50) is 58.1 µM.
Take `O=C(N[C@@H](COCc1ccccc1)C(=O)O)C(=Cc1ccc(Oc2ccccc2)cc1)NC(=O)c1ccc(C(F)(F)F)cc1` [Compound 15, (S)-3-Benzyloxy-2-[3-(4-phenoxyphenyl)-2-(4-trifluoromethylbenzoylamino)-acryloylamino]propionic acid]: the IC50 is 11 µM.
In the case of `COc1cccc(C(=O)N/C(=C/c2ccc(Cl)c(Cl)c2)C(=O)NC(Cc2ccc(Cl)cc2)C(=O)O)c1` (stereo not shown) [Compound 117], the IC50 came to 15.5 µM.
In the case of `CC(C)(S)C(NC(=O)/C(=C\c1ccc(-c2ccccc2)cc1)NC(=O)c1ccc(C(F)(F)F)cc1)C(=O)O` (stereo not shown) [Compound 90], the IC50 is 7.8 µM.
As for `CC(C)(S)C(NC(=O)/C(=C\c1cccc(Oc2ccccc2)c1)NC(=O)c1ccc(C(F)(F)F)cc1)C(=O)O` (stereo not shown) [Compound 160], the IC50 came to 16 µM.
Under `O=C(N[C@@H](COCc1ccccc1)C(=O)O)/C(=C\c1ccc(Cl)c(Cl)c1)NC(=O)c1ccc(Cl)cc1` [Compound 29, (S)-3-Benzyloxy-2-[2-(4-chlorobenzoylamino)-3-(3,4-dichlorophenyl)-acryloylamino]propionic acid] stands 70 µM.
Consider `CC(C)(S)C(NC(=O)/C(=C\c1ccc(Cl)c(Cl)c1)NC(=O)c1ccc(-c2ccccc2)cc1)C(=O)O` (stereo not shown) [Compound 92], for which the half-inhibitory concentration (IC50) is 5 µM.
Under `O=C(N[C@@H](CSCc1ccccc1)C(=O)O)/C(=C\c1cccc2ccccc12)NC(=O)c1ccc(C(F)(F)F)cc1` [Compound 3, (R)-3-Benzylsulfanyl-2-[3-naphthalen-1-yl-2-(4-trifluoromethylbenzoylamino)-acryloylamino]propionic acid] stands 30.3 µM; under `O=C(N[C@H](Cc1ccc(Cl)cc1)C(=O)O)/C(=C\c1cccc(C(F)(F)F)c1)NC(=O)c1ccc(OC(F)(F)F)cc1` [Compound 36, (R)-3-(4-Chlorophenyl)-2-[2-(4-trifluoromethoxybenzoylamino)-3-(3-trifluoromethylphenyl)acryloylamino]propionic acid], 21.6 µM.
In the case of `O=C(N[C@@H](CSCc1ccccc1)C(=O)O)/C(=C\c1ccc2ccccc2c1)NC(=O)c1ccc(Br)cc1` [Compound 45, (R)-3-Benzylsulfanyl-2-[2-(4-bromobenzoylamino)-3-naphthalen-2-yl-acryloylamino]propionic acid], the 50% inhibitory concentration (IC50) is 81.6 µM.
The figure for `COc1ccc(/C=C(/NC(=O)c2ccc(-c3ccccc3)cc2)C(=O)N[C@@H](Cc2ccc(Cl)cc2)C(=O)O)cc1OC` (stereo in doubt) [Compound 50, 2-[2-[(Biphenyl-4-carbonyl)amino]-3-(3,4-dimethoxyphenyl)acryloylamino]-3-(4-chlorophenyl)propionic acid] is 79.4 µM.
